Measured values taken from patent US20260076975A1, “TPK AGONIST AND METHOD FOR USING SAME TO TREAT NEURODEGENERATIVE DISEASES” (SHANGHAI RAISING PHARMACEUTICAL CO., LTD., priority 2022, published 2026).
pEC50: −log10 of the molar value. Like-named read-outs stand apart in the source and are kept apart here.

Biological target: TPK enzyme (Homo sapiens, UniProt Q9H3S4)
Test: TPK enzyme activity test (TDP formation from thiamine and ATP, HPLC detection)
Type: biochemical
Procedure: The purpose of this example was to test the promoting effect of compounds on TPK enzyme activity and evaluate the in vitro activity of the compounds based on EC50 and Emax.
1.1) The constant-temperature water-bath shaker was pre-heated half an hour in advance at a pre-heating temperature of 37° C.
1.2) The stock solution of the compound to be tested was taken out, allowed to thaw at room temperature, and then diluted to the required concentration.
1.3) The required reagents were placed on ice to thaw.
2.1) For each reaction system, TPK enzyme solution, Tris-HCl buffer solution, and ATP solution were added. The concentration of ATP used was 1-500 mM. The above three solutions were formulated into a homogeneous mixture.
2.2) The mixture of the above three solutions was dispensed into centrifuge tubes. Then, the compound at the required concentration was added to each centrifuge tube. Finally, thiamine solution (1-100 μM) was added. After the addition of the above system was completed, the centrifuge tubes were tightly capped, inserted into a floating board, and placed in the constant-temperature water-bath shaker that had been pre-heated to 37° C. for incubation for 0.5-2.0 hours.
2.3) After the incubation was completed, perchloric acid stop solution was added and mixed well. Samples were taken into 1.5 mL centrifuge tubes and stored at −20° C.
3.1) The samples stored at −20° C. were taken out, thawed at room temperature, and then subjected to derivatization treatment. The samples were placed in centrifuge tubes, a potassium ferricyanide derivatization reagent was added, and finally phosphoric acid stop solution was added to stop the reaction.
3.2) The derivatized samples were placed in sample vials for liquid chromatography analysis, and the contents of TDP/thiamine were detected by high performance liquid chromatography. TKP enzyme activity=TDP (nM)/mg protein/min.
The effects of the compounds of the present invention on TPK enzyme activity at different concentrations were determined according to the above procedures.

[1] = promoting effect on TPK enzyme activity
[2] = promoting effect on TPK enzyme activity, calculated with the effect of DMSO on TPK enzyme activity as 100%, read-out: Emax

Sequence of TPK enzyme (Q9H3S4 whole entry): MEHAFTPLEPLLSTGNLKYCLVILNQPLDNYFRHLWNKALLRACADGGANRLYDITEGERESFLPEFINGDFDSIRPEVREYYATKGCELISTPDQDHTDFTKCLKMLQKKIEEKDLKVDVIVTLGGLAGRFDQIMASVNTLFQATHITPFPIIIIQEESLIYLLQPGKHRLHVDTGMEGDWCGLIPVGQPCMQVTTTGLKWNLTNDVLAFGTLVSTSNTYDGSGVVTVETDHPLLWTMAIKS

SMILES	pEC50 [1]	Emax [2] [%]	Emax [%]	Emax (promoting effect on TPK enzyme activity, calculated with the effect of DMSO on TPK enzyme activity as 100%) [%]
O=C1CCc2ccc(OC#CCCN3CCN(c4cccc(Cl)c4Cl)CC3)cc2N1 [Compound 1, 7-((4-(4-(2,3-dichlorophenyl)piperazin-1-yl)but-1-yn-1-yl)oxy)-3,4-dihydroquinolin-2(1H)-one]	5.94	183		
COc1cccc(NC(=O)CNC(=O)N2CCN(c3cccc(Cl)c3Cl)CC2)c1 [Compound 68, 4-(2,3-dichlorophenyl)-N-(2-((3-methoxyphenyl)amino)-2-oxoethyl)piperazine-1-carboxamide]			144	
O=C(CN1CCC(c2c[nH]c3ccccc23)CC1)NC(=O)NC1CC1 [Compound 138]	6.00	180		
COc1cc2c(cc1OC)N(CCCCN1CCN(c3cccc(C(F)(F)F)c3)CC1)C(=O)C2 [Compound 78, 5,6-dimethoxy-1-(4-(4-(3-(trifluoromethyl)phenyl)piperazin-1-yl)butyl)indol-2-one]			130	
O=C1COc2ccc(OCCCCN3CCN(c4cccc(Cl)c4Cl)CC3)cc2N1 [Compound 26]	5.91	190		
O=C1CCc2cc(S(=O)(=O)N3CCN(c4cccc(C(F)(F)F)c4)CC3)ccc2N1 [Compound 157]	5.58	155		
COc1ccc(C(=O)NCCCCC(=O)N2CCN(c3cccc(Cl)c3Cl)CC2)cc1OC [Compound 171, N-(5-(4-(2,3-dichlorophenyl)piperazin-1-yl)-5-oxopentyl)-3,4-dimethoxybenzamide]			127	
CCC1Oc2cc(S(=O)(=O)N(C)CC(=O)NCc3ccc(Cl)cc3)c(C)cc2NC1=O (centres unmarked) [Compound 143]		122		
O=C(CN1CCN(C(=O)CCC2Cc3ccccc3NC2=O)CC1)Nc1ccccc1Cl (centres unmarked) [Compound 140]	5.06	203		
O=c1ccc2ccc(OCCN3CCN(c4nc5ccccc5s4)CC3)cc2[nH]1 [Compound 35, 7-(2-(4-(benzothiazol-2-yl)piperazin-1-yl)ethoxy)quinolin-2(1H)-one]	5.86	163		
COc1cncc(C#CC(=O)N2CCN(c3cccc(Cl)c3Cl)CC2)c1 [Compound 72, 1-(4-(2,3-dichlorophenyl)piperazin-1-yl)-3-(5-methoxypyridin-3-yl)prop-2-yn-1-one]	5.49		171	
Oc1cncc(C#CCN2CCN(c3cccc(Cl)c3Cl)CC2)c1 [Compound 70, 5-(3-(4-(2,3-dichlorophenyl)piperazin-1-yl)prop-1-yn-1-yl)pyridin-3-ol]			147	
CCOC(=O)c1nc(CNC(=O)CCCN2CCN(c3cccc(Cl)c3Cl)CC2)sc1C [Compound 82, ethyl 2-((4-(4-(2,3-dichlorophenyl)piperazin-1-yl)butanamido)methyl)-5-methylthiazole-4-carboxylate]	5.60	156		
Cc1ccc(Cl)cc1N1CCN(CCCNC(=O)C2COc3ccccc3C2)CC1 (centres unmarked) [Compound 149]		182		
CN(CC(=O)NCc1ccc(Cl)cc1)S(=O)(=O)c1ccc2[nH]c(=O)ccc2c1 [Compound 145]		120		
CN(CCOCc1cccc(Cl)c1Cl)CCOc1ccc2c(c1)NC(=O)CC2 [Compound 98, 7-(2-((2-((2,3-dichlorobenzyl)oxy)ethyl)(methyl)amino)ethoxy)-3,4-dihydroquinolin-2(1H)-one]		139		
CC(O)COc1ccc(/C=C/CN2CCN(c3cccc(Cl)c3Cl)CC2)cc1O (centres unmarked) [Compound 62, (E)-5-(3-(4-(2,3-dichlorophenyl)piperazin-1-yl)prop-1-en-1-yl)-2-(2-hydroxypropoxy)phenol]	6.04	137		
COc1ccc(/C=C/CN2CCN(c3cccc(Cl)c3Cl)CC2)cc1OC [Compound 60, (E)-1-(2,3-dichlorophenyl)-4-(3-(3,4-dimethoxyphenyl)allyl)piperazine]	5.89	234		
CCOC(=O)c1nc(CNC(=O)CCCN2CCN(c3nc4ccccc4s3)CC2)sc1C [Compound 80, ethyl 2-((4-(4-(benzo[d]thiazol-2-yl)piperazin-1-yl)butanamido)methyl)-5-methylthiazole-4-carboxylate]	5.59	150		
O=C1COc2ccc(C(=O)COC(=O)C=Cc3ccc(S(=O)(=O)N4CCCCCC4)cc3)cc2N1 [Compound 154]		132		
O=C1CCc2ccc(OCCCN3CCN(c4nc5ccccc5s4)CC3)cc2N1 [Compound 38, 7-(3-(4-(benzo[d]thiazol-2-yl)piperazin-1-yl)propoxy)-3,4-dihydroquinolin-2(1H)-one]	5.93	157		

SMILES	pEC50 [1]	Emax [2] [%]	Emax [%]	Emax (promoting effect on TPK enzyme activity, calculated with the effect of DMSO on TPK enzyme activity as 100%) [%]
O=C1CCc2ccc(OCCNCCC3CC3c3cccc(Cl)c3Cl)cc2N1 (centres unmarked) [Compound 102, 7-(2-((2-(2-(2,3-dichlorophenyl)cyclopropyl)ethyl)amino)ethoxy)-3,4-dihydroquinolin-2(1H)-one]	4.90	170		
CC(C)(C)NC(=O)NC(=O)CN1CCC(c2c[nH]c3ccccc23)CC1 [Compound 137]	3.96	146		
CNc1cc(NC(=O)CCN2CCN(c3cccc(Cl)c3Cl)CC2)ccc1OC [Compound 50, 3-(4-(2,3-dichlorophenyl)piperazin-1-yl)-N-(4-methoxy-3-(methylamino)phenyl)propanamide]		128		
O=C1CCc2ccc(OCCN3CCc4cc(Cl)ccc43)cc2N1 [Compound 103, 7-(2-(5-chloroindolin-1-yl)ethoxy)-3,4-dihydroquinolin-2(1H)-one]	4.76	137		
C[C@@H]1C[C@@H](COc2ccc3c(c2)NC(=O)CC3)CN(CC[C@@H](N)c2cccc(Cl)c2Cl)C1 [Compound 135, 7-(((3R,5R)-1-((R)-3-amino-3-(2,3-dichlorophenyl)propyl)-5-methylpiperidin-3-yl)methoxy)-3,4-dihydroquinolin-2(1H)-one]		133		
Cc1cccc(NC(=O)CSCC(=O)N2CCN(c3cccc(Cl)c3Cl)CC2)c1 [Compound 46]	5.88	149		
Cc1cc2c(cc1S(=O)(=O)N(C)CC(=O)NCc1ccc(F)cc1)OCC(=O)N2 [Compound 142]		126		
CC(=O)N1CCCc2cc(C(=O)N3CCC(Cc4ccc(F)cc4)CC3)ccc21 [Compound 168, 1-(6-(4-(4-fluorobenzyl)piperidine-1-carbonyl)-3,4-dihydroquinolin-1(2H)-yl)ethan-1-one]	5.27	151		
CCCc1cc(=O)n2nc(N3CCC(C(=O)NCc4ccc(CC)cc4)CC3)sc2n1 [Compound 151]	5.47	155		
O=C1NCCc2ccc(OCCCCCN3CCN(c4cccc(Cl)c4Cl)CC3)cc21 [Compound 23, 7-((5-(4-(2,3-dichlorophenyl)piperazin-1-yl)pentyl)oxy)-3,4-dihydroisoquinolin-1(2H)-one]	6.00	226		
O=C(CCn1cnc2sccc2c1=O)N1CCN(c2cccc(C(F)(F)F)c2)CC1 [Compound 147]		147		
Cc1cc(=O)oc2cc(OCC(=O)N3CCN(c4cccc(C(F)(F)F)c4)CC3)ccc12 [Compound 148]	5.91	165		
O=C1CCc2ccc(OCCN3CCN(c4nc5ccccc5s4)CC3)cc2N1 [Compound 34, 7-(2-(4-(benzo[d]thiazol-2-yl)piperazin-1-yl)ethoxy)-3,4-dihydroquinolin-2(1H)-one]	5.89	189		
CN(c1cccc(Cl)c1Cl)[C@@H]1CCN(CCCCOc2ccc3c(c2)NC(=O)CC3)C1 [Compound 133, (R)-7-(4-(3-((2,3-dichlorophenyl)(methyl)amino)pyrrolidin-1-yl)butoxy)-3,4-dihydroquinolin-2(1H)-one]	4.97	167		
O=c1ccc2ccc(OCCCCN3CCN(c4nc5ccccc5s4)CC3)cc2[nH]1 [Compound 37, 7-(4-(4-(benzo[d]thiazol-2-yl)piperazin-1-yl)butoxy)quinolin-2(1H)-one]	5.93	224		
CC(CNC(=O)COc1ccc2c(c1)CCC(=O)N2)N1CCCC1 (centres unmarked) [Compound 152]	5.02	161		
O=C1NCCc2ccc(OCCCCN3CCN(c4cccc(Cl)c4Cl)CC3)cc21 [Compound 22]	5.92	167		
Cc1ccc(Cl)cc1N1CCN(CCNC(=O)CC2Oc3ccccc3NC2=O)CC1 (centres unmarked) [Compound 91]	4.59			200.91
O=C(CCOCc1ccc(N2CCCCC2)nc1)NCCc1cccc2ccc(O)cc12 [Compound 178, N-(2-(7-hydroxynaphthalen-1-yl)ethyl)-3-((6-(piperidin-1-yl)pyridin-3-yl)methoxy)propanamide]			120	
Cc1ccc2c(n1)N(CCCCCN1CCN(c3cccc(Cl)c3Cl)CC1)CCO2 [Compound 75, 4-(5-(4-(2,3-dichlorophenyl)piperazin-1-yl)pentyl)-6-methyl-3,4-dihydro-2H-pyrido[3,2-b][1,4]oxazine]	6.66		136	
